Data on 24 compounds can be found in patent US5993889A, “Trehalose phosphorylase, its preparation and use” (Kabushiki Kaisha Hayashibara Seibutsu Kagaku Kenkyujo, priority 1996, dated 1999).

Common to all, as to format: biochemical, Thermoanaerobium brockii
In assay [1] the target is T1, trehalose phosphorylase (Thermoanaerobacter brockii, UniProt Q8L164).
T1 construct: recombinant E. coli enzyme (pTTP4) equivalent
T1 sequence (Q8L164 2-774): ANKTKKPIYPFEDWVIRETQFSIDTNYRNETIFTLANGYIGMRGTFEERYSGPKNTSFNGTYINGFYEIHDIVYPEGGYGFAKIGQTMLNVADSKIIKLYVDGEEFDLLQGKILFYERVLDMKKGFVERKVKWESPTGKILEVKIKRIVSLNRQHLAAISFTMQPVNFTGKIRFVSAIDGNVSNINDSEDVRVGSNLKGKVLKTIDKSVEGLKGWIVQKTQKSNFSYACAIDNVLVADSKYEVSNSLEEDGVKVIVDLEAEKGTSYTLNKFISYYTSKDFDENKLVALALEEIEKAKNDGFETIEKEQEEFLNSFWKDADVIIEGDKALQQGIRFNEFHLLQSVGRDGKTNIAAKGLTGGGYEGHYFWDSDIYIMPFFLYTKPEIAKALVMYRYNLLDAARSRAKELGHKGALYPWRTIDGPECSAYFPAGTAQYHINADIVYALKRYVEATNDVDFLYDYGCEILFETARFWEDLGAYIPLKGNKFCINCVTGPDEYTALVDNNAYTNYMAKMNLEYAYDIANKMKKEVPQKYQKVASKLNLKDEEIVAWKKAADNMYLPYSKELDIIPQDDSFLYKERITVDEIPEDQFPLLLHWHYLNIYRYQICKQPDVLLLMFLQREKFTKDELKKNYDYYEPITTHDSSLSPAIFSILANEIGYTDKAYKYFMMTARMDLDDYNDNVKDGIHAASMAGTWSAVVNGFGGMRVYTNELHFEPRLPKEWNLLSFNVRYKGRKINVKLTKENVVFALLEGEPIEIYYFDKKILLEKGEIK
The experiment in a line: Trehalose phosphorylase activity assay: inhibition and activation by added substances. As to conditions: one mM. As to the method:
The present trehalose phosphorylase activity is assayed as follows: Add 0.2 ml of an enzyme solution to 2 ml of 20 mM phosphate buffer (pH 7.0) containing 1.0 w/v % trehalose as a substrate, incubate the solution at 60° C. for 30 min, sample the reaction mixture in an amount of 0.5 ml, and incubate the sample at 100° C. for 10 min to suspend the enzymatic reaction. Add 0.5 ml of D-glucose oxidase/peroxidase reagent to the heated sample, stir the mixture, keep the mixture at 40° C. for 30 min, add 2.5 ml of 5-N hydrochloric acid, stir the resulting mixture, and measure the absorbance of the mixture at a wavelength of 525 nm. One unit of the enzyme activity is defined as the enzyme that forms one […] of D-glucose per one minute. The activity of maltose- and kojibiose-phosphorylases can be assayed similarly as the same assay as indicated above except that the trehalose as a substrate is respectively replaced with maltose and kojibiose.
Influences of temperatures and pHs on the present trehalose phosphorylase activity were studied in accordance with the assay for enzyme activity. To study the influence of temperatures, the enzyme was reacted at temperatures of about 50-85° C. in place of 60° C. as used in the enzyme assay. In the case of studying the influence of pHs, the enzyme was reacted at pHs of about 4-9 in place of the buffer's pH as used in the assay for the enzyme activity. In both cases, the enzymatic reactions were suspended similarly as in the enzyme assay, followed by quantifying the formed glucose. […] The thermal stability of the enzyme was determined by incubating the enzyme dissolved in 10 mM phosphate buffer (pH 7.0) at a temperature of about 40-85° C. for one hour, cooling the incubated enzyme, and assaying for the residual enzyme activity according to the enzyme assay. The pH stability of the enzyme was determined by dissolving the enzyme in buffers with different pHs of about 4-10, keeping each enzyme solution at 4° C. for 24 hours, adjusting each solution to give a pH of 7.0, and assaying for the residual enzyme activity according to the enzyme assay. […] The enzyme activity was inhibited by one mM Cu^++, Pb^++, Zn^++, Hg^++, Mg^++, or Mn^++.

Assay [2] concerns the target T1, trehalose phosphorylase. Description: Substrate specificity for saccharide-hydrolyzing reaction by trehalose phosphorylase (TLC). As to conditions: saccharide 2 w/v %, 10 units/g saccharide purified enzyme, 5 mM disodium hydrogenphosphate, 60° C., pH 7.0, 24 hours. Also on record: key: +: Hydrolyzed by the action of the present trehalose phosphorylase.; -: Not hydrolyzed by the action of the present trehalose phosphorylase. The protocol: An aqueous solution of a saccharide selected from D-glucose, maltose, sucrose, lactose, trehalose, neotrehalose, cellobiose, melibiose, kojibiose, isomaltose, sophorose, gentibiose, nigerose, laminaribiose, maltopentaose, and 4-O-α-D-glucosyltrehalose was mixed with 10 units/g saccharide, d.s.b., of a purified trehalose phosphorylase obtained by the method in Experiment 2, and incubated in the presence of 5 mM disodium hydrogenphosphate at 60° C. and pH 7.0 for 24 hours. The saccharide concentration of each reaction solution was 2 w/v %. Pre-reaction solutions and post-reaction mixtures were subjected to thin layer chromatography (hereinafter abbreviated as "TLC") using "KIESELGEL 60 (20×20 cm)", an aluminum plate for TLC commercialized by Merck & Co., Inc., Rahway, USA. Samples were developed once at ambient temperature on the plate using 1-butanol/pyridine/water (=7:3:1 by volume) as a developing solvent system, and the plate was sprayed with 20 v/v % sulfuric acid/methanol solution, and heated at 110° C. for about 10 min for coloration. Comparing spots of the solutions and mixtures detected on the plates, it was checked whether the enzyme acted on the saccharides.

In assay [3] the target is T1, trehalose phosphorylase. The experiment in a line: Specificity to acceptor in glucosyl-transferring saccharide-forming reaction by trehalose phosphorylase (TLC). As to conditions: used as donor in place of β-D-glucose-1-phosphoric acid. The protocol:
An aqueous solution, which dissolved in an equal amount, by dry weight, […], […] obtained by the method in Experiment 2, and enzymatically reacted at 60° C. and pH 7.0 for 24 hours. Similarly as in Experiment 5, the pre-reaction solutions and the post-reaction mixtures were subjected to TLC, followed by coloring the plates. Comparing spots of the samples of the solutions and mixtures detected on the plates, it was judged whether transferred saccharides were formed based on newly detected spots of the post reaction mixtures. By macroscopically observing the coloration degree of the newly detected spots, the yield of the transferred saccharides was relatively evaluated.

SMILES strings stand for the structures.

In the case of `O[C@H](CS)[C@H](O)CS` (racemic) [dithiothreitol], the “Activation and stabilization of the enzyme” value on trehalose phosphorylase [1] was “Activated”.
Turning to `OC[C@H]1O[C@H](O[C@H]2O[C@H](CO)[C@@H](O[C@H]3O[C@H](CO)[C@@H](O)[C@H](O)[C@H]3O)[C@H](O)[C@H]2O)[C@H](O)[C@@H](O)[C@@H]1O` [4-O-α-D-glucosyltrehalose], the Decomposition result on trehalose phosphorylase [2] was “-”.
On the same count and under the same terms, the entry for `OC[C@H]1O[C@@H](O[C@H]2[C@H](O)[C@@H](O)C(O)O[C@@H]2CO)[C@H](O)[C@@H](O)[C@@H]1O` (stereo partly drawn) [Cellobiose] is “-”.
Take `[Cu+2]` [Cu^++]: the Enzyme activity inhibition result at trehalose phosphorylase [1] was “inhibited”.
With `OC[C@H]1OC(O)[C@H](O)[C@@H](O)[C@@H]1O` (stereo partly drawn) [D-Glucose], the Decomposition result at trehalose phosphorylase [2] is listed as “-”.
For `OC[C@H]1O[C@@H](OC[C@H]2OC(O)[C@H](O)[C@@H](O)[C@@H]2O)[C@H](O)[C@@H](O)[C@@H]1O` (stereo partly drawn) [Gentibiose], the Decomposition entry at trehalose phosphorylase [2] was “-”.
As to `[Hg+2]` [Hg^++], at trehalose phosphorylase [1], the Enzyme activity inhibition entry is given as “inhibited”.
On to `OC[C@H]1O[C@H](OC[C@H]2OC(O)[C@H](O)[C@@H](O)[C@@H]2O)[C@H](O)[C@@H](O)[C@@H]1O` (stereo partly drawn) [Isomaltose], for which the Decomposition result on trehalose phosphorylase [2] is “-”.
On the same count and under the same terms, the entry for `OC[C@H]1O[C@H](O[C@H]2C(O)O[C@H](CO)[C@@H](O)[C@@H]2O)[C@H](O)[C@@H](O)[C@@H]1O` (stereo partly drawn) [Kojibiose] is “-”.
On to `OC[C@H]1O[C@@H](O[C@H]2[C@H](O)[C@@H](O)C(O)O[C@@H]2CO)[C@H](O)[C@@H](O)[C@H]1O` (stereo partly drawn) [Lactose], for which, on trehalose phosphorylase [2], the Decomposition result was “-”.
As for `OC[C@H]1O[C@@H](O[C@H]2[C@H](O)[C@@H](CO)OC(O)[C@@H]2O)[C@H](O)[C@@H](O)[C@@H]1O` (stereo partly drawn) [Laminaribiose], the Decomposition entry at trehalose phosphorylase [2] is “-”.
With `OC[C@H]1O[C@H](O[C@H]2[C@H](O)[C@@H](O)[C@@H](O[C@H]3[C@H](O)[C@@H](O)[C@@H](O[C@H]4[C@H](O)[C@@H](O)[C@@H](O[C@H]5[C@H](O)[C@@H](O)C(O)O[C@@H]5CO)O[C@@H]4CO)O[C@@H]3CO)O[C@@H]2CO)[C@H](O)[C@@H](O)[C@@H]1O` (stereo partly drawn) [Maltopentaose], the Decomposition result at trehalose phosphorylase [2] is “-”.
Consider `OC[C@H]1O[C@H](O[C@H]2[C@H](O)[C@@H](O)[C@H](O)O[C@@H]2CO)[C@H](O)[C@@H](O)[C@@H]1O` [Maltose], for which the Decomposition result at trehalose phosphorylase [2] is “-”.
Take `OC[C@H]1O[C@H](OC[C@H]2OC(O)[C@H](O)[C@@H](O)[C@@H]2O)[C@H](O)[C@@H](O)[C@H]1O` (stereo partly drawn) [Melibiose]: the Decomposition result on trehalose phosphorylase [2] is listed as “-”.
Turning to `[Mg+2]` [Mg^++], the Enzyme activity inhibition entry on trehalose phosphorylase [1] is “inhibited”.
`[Mn+2]` [Mn^++]: the Enzyme activity inhibition result on trehalose phosphorylase [1] was “inhibited”.
As for `OC[C@H]1O[C@@H](O[C@H]2O[C@H](CO)[C@@H](O)[C@H](O)[C@H]2O)[C@H](O)[C@@H](O)[C@@H]1O` [Neotrehalose], on trehalose phosphorylase [2], the Decomposition entry is reported as “-”.
On the same count and under the same terms, the entry for `OC[C@H]1O[C@H](O[C@H]2[C@H](O)[C@@H](CO)OC(O)[C@@H]2O)[C@H](O)[C@@H](O)[C@@H]1O` (stereo partly drawn) [Nigerose] is “-”.
Consider `[Pb+2]` [Pb^++], for which the Enzyme activity inhibition result at trehalose phosphorylase [1] is “inhibited”.
Regarding `OC[C@H]1O[C@@H](O[C@H]2C(O)O[C@H](CO)[C@@H](O)[C@@H]2O)[C@H](O)[C@@H](O)[C@@H]1O` (stereo partly drawn) [Sophorose], the Decomposition result on trehalose phosphorylase [2] is reported as “-”.
With `OC[C@H]1O[C@@](CO)(O[C@H]2O[C@H](CO)[C@@H](O)[C@H](O)[C@H]2O)[C@@H](O)[C@@H]1O` [Sucrose], the Decomposition entry at trehalose phosphorylase [2] was “-”.
The same measure, in the same setting: the entry for `OC[C@H]1O[C@H](O[C@H]2O[C@H](CO)[C@@H](O)[C@H](O)[C@H]2O)[C@H](O)[C@@H](O)[C@@H]1O` [Trehalose] is “+”.
Take `[Zn+2]` [Zn^++]: the Enzyme activity inhibition result on trehalose phosphorylase [1] was “inhibited”.
As to `O=P(O)(O)O[C@H]1O[C@H](CO)[C@@H](O)[C@H](O)[C@H]1O` [α-D-glucose-1-phosphoric acid], on trehalose phosphorylase [3], the “Formation of glucosyl-transferred saccharide when used as saccharide donor” value is “No glucosyl-transferred saccharide was obtained”.
